Where two headings read alike, the source gives them in different places.
How the values were obtained:
[1] = system: IL-1β secreted by synoviocyte; assay: Content of IL-1β in culture supernatant of synoviocyte of RA model rats given test compound; format: in vivo; settings: rat RA model, dose 30 mg/kg.2d; normal control 0.16 ± 0.034, NaCl 0.49 ± 0.136
Method in brief: (§1)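 Rat RA model; dosing 30 mg/kg.2d; normal and NaCl control groups. Synoviocyte culture supernatant collected; TNF-α and PGE2 measured by one established method, IL-1β by a separate method.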

cancer cells = assay: Survival rate of cancer cells after test compound is added (flow cytometry, Annexin V-FITC/PI, clinical specimen); format: cell-based, patient; settings: Homo sapiens, 18 h, read-out: Survival rate (%) All cells (Stem cells and ordinary cells)
Description: (§2) Take fresh or cryopreserved clinical specimen (acute myelogenous leukemia (AML, marker is CD34^+/CD38^+), chronic myelogenous leukemia (CML, Ph+/CD34+/CXCR4+), chronic lymphocytic leukemia (CLL,CD133+/CD19−/CD38−), skin cancer (CD34+), breast cancer (CD44+/CD24−/ESA+), ovarian cancer (CD44+/CD117+), brain tumor (CD133+) prostate cancer (CD44+/CD24−), head-neck squamous cell carcinoma (CD44+), laryngeal cancer (CD133+), pancreatic cancer (ESA+/CD44+/CD24+), retinoblastoma (ABCG2/ALDH1), Children hepatoblastoma (CD34+/THY1+/c-kit+), liver cancer (CD133+), malignant melanoma (CD133+), colorectal cancer (EpCAM^high/CD44+), colon adenocarcinoma (CD44^high), glioma (ABCG-2/BCRP1), gastrointestinal tumor (ABCG-2/BCRP1), nasopharynx cancer (ABCG2), brain glioma (Dlk-1/Pref-1), gastric cancer (CD45+), lung adenocarcinoma (Sca-1/CD45-/Pecam-/CD34+), lung cancer (CD133+CD34+CD44+)) of patient. Take the acute myelogenous leukemia as the example, conduct density gradient centrifugation with Ficoll and take out the middle mononuclear cells, re-suspend it with serum-free IMDM after centrifuged. Adjust the concentration of cells into 1×10^6/mL and lay 24-well plate with 1 mL in each well, and then treat 18 hours with the compound to select with corresponding concentration. Collect the cells and centrifuge them at 1500 rps for 8 minutes, re-suspend the precipitation with […], mark the antibodies related to leukemia stem cell, avoid light to incubate 30 minutes at room temperature and then centrifuge it at 1500 rps, then wash away the unbound antibody CD34^+CD38^+. Re-suspend it with 100 μl 1× Binding Buffer and add respectively 5 μl Annexin V-FITC and PI, then avoid light to incubate 15 minutes before add 200 μl 1× Binding Buffer, then use flow cytometry to examine the marked apoptosis within one hour.

[2] = system: PGE2 secreted by synoviocyte; assay: Content of PGE2 in culture supernatant of synoviocyte of RA model rats given test compound; format: in vivo; settings: rat RA model, dose 30 mg/kg.2d; normal control 8.34 ± 1.29, NaCl 32.44 ± 10.32
Method in brief: as §1

cancer stem cells = assay: Survival rate of cancer stem cells after test compound is added (flow cytometry, Annexin V-FITC/PI, clinical specimen); format: cell-based, patient; settings: Homo sapiens, 18 h
Description: as §2

normal cells = assay: Survival rate of normal cells after test compound is added (flow cytometry, Annexin V-FITC/PI); format: cell-based; settings: 18 h
Description: as §2

[3] = Head and neck squamous cell carcinomas
[4] = read-out: Survival rate (%) All cells (Stem cells and ordinary cells)
[5] = read-out: Survival rate (%) Stem cells

CN(C)C[C@@H]1C(=O)O[C@H]2[C@H]1CCC1(CC1)[C@@H]1CCC3(CC3)[C@H]21 [Compound 35]
89%: viability at 20 µM (cancer cells; Gastric cancer) | viability at 20 µM (cancer cells; Gastrointestinal tumor) | viability at 10 µM (cancer cells; Laryngeal cancer) | viability at 10 µM (cancer cells; Liver cancer) | viability at 20 µM (cancer cells; Retinoblastoma) | viability at 20 µM (cancer cells; Skin cancer)
21.54 ± 1.32 ng/mL: Content of PGE2 in culture supernatant of synoviocyte (x ± s) [2]
79%: viability at 10 µM (cancer stem cells; Pancreatic cancer) | viability at 20 µM (cancer stem cells; Prostate cancer)
83%: viability at 20 µM (cancer cells; Brain tumor) | viability at 20 µM (cancer cells; CLL) | viability at 20 µM (cancer cells; Glioma)
92%: viability at 10 µM (cancer cells; Brain glioma) | viability at 20 µM (cancer cells; Breast cancer) | viability at 10 µM (cancer cells; Gastric cancer) | viability at 10 µM (cancer cells; Gastrointestinal tumor) | viability at 20 µM (cancer cells; Nasopharynx cancer) | viability at 10 µM (cancer cells; Skin cancer)
0.41 ± 0.056 ng/mL: Content of IL-1β in culture supernatant of synoviocyte (x ± s) [1]
95%: viability at 10 µM (normal cells; [4])
76%: viability at 20 µM (cancer stem cells; Children hepatoblastoma) | viability at 20 µM (cancer stem cells; Laryngeal cancer)
86%: viability at 20 µM (cancer cells; Laryngeal cancer) | viability at 20 µM (cancer cells; Liver cancer) | viability at 10 µM (cancer stem cells; Breast cancer) | viability at 10 µM (cancer stem cells; Nasopharynx cancer)
75%: viability at 20 µM (cancer stem cells; Brain tumor) | viability at 20 µM (cancer stem cells; CLL) | viability at 20 µM (cancer stem cells; Glioma) | viability at 20 µM (cancer stem cells; Malignant melanoma)
81%: viability at 20 µM (cancer cells; Pancreatic cancer) | viability at 10 µM (cancer stem cells; Brain tumor) | viability at 10 µM (cancer stem cells; CLL) | viability at 10 µM (cancer stem cells; Glioma) | viability at 20 µM (cancer stem cells; Retinoblastoma)
72%: viability at 20 µM (cancer stem cells; Pancreatic cancer)
88%: viability at 20 µM (cancer cells; CML) | viability at 20 µM (cancer cells; Colon adenocarcinoma) | viability at 20 µM (cancer cells; Lung cancer) | viability at 20 µM (cancer cells; Ovarian cancer) | viability at 10 µM (cancer cells; Pancreatic cancer) | viability at 10 µM (cancer cells; Prostate cancer) | viability at 10 µM (cancer stem cells; Retinoblastoma)
87%: viability at 20 µM (cancer cells; AML) | viability at 20 µM (cancer cells; Brain glioma) | viability at 10 µM (cancer cells; Brain tumor) | viability at 10 µM (cancer cells; CLL) | viability at 20 µM (cancer cells; Children hepatoblastoma) | viability at 20 µM (cancer cells; Colorectal cancer) | viability at 10 µM (cancer cells; Glioma) | viability at 20 µM (cancer cells; [3]) | viability at 20 µM (cancer cells; Lung adenocarcinoma) | viability at 10 µM (cancer stem cells; Children hepatoblastoma) | viability at 10 µM (cancer stem cells; Malignant melanoma)
73%: viability at 20 µM (cancer stem cells; AML) | viability at 20 µM (cancer stem cells; Colorectal cancer) | viability at 20 µM (cancer stem cells; [3]) | viability at 20 µM (cancer stem cells; Lung adenocarcinoma)
85%: viability at 20 µM (cancer cells; Prostate cancer) | viability at 10 µM (cancer stem cells; Gastric cancer) | viability at 10 µM (cancer stem cells; Gastrointestinal tumor) | viability at 10 µM (cancer stem cells; Prostate cancer) | viability at 10 µM (cancer stem cells; Skin cancer)
94%: viability at 10 µM (cancer cells; Children hepatoblastoma) | viability at 20 µM (normal cells; [4])
77%: viability at 20 µM (cancer stem cells; Gastric cancer) | viability at 20 µM (cancer stem cells; Gastrointestinal tumor) | viability at 20 µM (cancer stem cells; Skin cancer)
93%: viability at 10 µM (cancer cells; Breast cancer) | viability at 10 µM (cancer cells; Nasopharynx cancer)
78%: viability at 20 µM (cancer stem cells; Brain glioma) | viability at 20 µM (cancer stem cells; Breast cancer) | viability at 20 µM (cancer stem cells; CML) | viability at 20 µM (cancer stem cells; Colon adenocarcinoma) | viability at 20 µM (cancer stem cells; Lung cancer) | viability at 20 µM (cancer stem cells; Nasopharynx cancer) | viability at 20 µM (cancer stem cells; Ovarian cancer)
74%: viability at 20 µM (cancer stem cells; Liver cancer)
91%: viability at 10 µM (cancer cells; AML) | viability at 10 µM (cancer cells; CML) | viability at 10 µM (cancer cells; Colon adenocarcinoma) | viability at 10 µM (cancer cells; Colorectal cancer) | viability at 10 µM (cancer cells; [3]) | viability at 10 µM (cancer cells; Lung adenocarcinoma) | viability at 10 µM (cancer cells; Lung cancer) | viability at 10 µM (cancer cells; Malignant melanoma) | viability at 10 µM (cancer cells; Ovarian cancer) | viability at 10 µM (cancer cells; Retinoblastoma) | viability at 10 µM (normal cells; [5])
84%: viability at 20 µM (cancer cells; Malignant melanoma) | viability at 10 µM (cancer stem cells; Brain glioma) | viability at 10 µM (cancer stem cells; CML) | viability at 10 µM (cancer stem cells; Colon adenocarcinoma) | viability at 10 µM (cancer stem cells; Liver cancer) | viability at 10 µM (cancer stem cells; Lung cancer) | viability at 10 µM (cancer stem cells; Ovarian cancer)
82%: viability at 10 µM (cancer stem cells; AML) | viability at 10 µM (cancer stem cells; Colorectal cancer) | viability at 10 µM (cancer stem cells; [3]) | viability at 10 µM (cancer stem cells; Laryngeal cancer) | viability at 10 µM (cancer stem cells; Lung adenocarcinoma)
90%: viability at 20 µM (normal cells; [5])

— patent US10463644B2, “Uses of sesquiterpene lactone compounds and their derivatives in drugs preparation” (ACCENDATECH, priority 2013, dated 2019)
